Key:
AIA Lewis rats = experiment: Treatment study of the active compound in AIA Lewis rats; serum metabolite profile by GC/TOFMS and OPLS; format: in vivo; details: 1 mg, 3 mg or 10 mg active compound
Source text: This example illustrates the potency of the active compound and its therapeutically active acid addition salts for treatment of […].
AIA was induced in a total of 21 Lewis rats were included in the treatment study. Samples used consist of the following blood samples: • 22 samples from AIA Lewis rats (one of the rats was sampled twice) • 26 samples from treated AIA Lewis rats (five of the rats was sampled twice)
Different treatments were distributed in the AIA subjects as follows: • 5 subjects received 1 mg active compound • 5 subjects received 3 mg active compound • 6 subjects received 10 mg active compound • 5 subjects received 1 mg methotrexate Extraction of Metabolites from Serum
(§1) Extraction of metabolites from serum samples was essentially performed as the method described by A et al. (2005). 630 μl of MeOH:H2O (9:1 V:V) including internal standards was added to 70 μl of serum. The solution was vortex mixed for 10 s, kept on ice for 10 min, and then vigorously extracted at a frequency of 30 Hz for 3 min using a MM301 vibration Mill (Retsch GmbH & Co. KG, Haan, Germany. After […] on ice, the samples were centrifuged at 19 600 g for 10 min at 4° C. 200 μl of the supernatant was transferred to a GC vial, and 50 μl was transferred to a LC/MS vial and evaporated to dryness.
GC/TOFMS analysis and the Data processing of MS-data was carried out as in Example 1 above.

AIA DA rats = experiment: Treatment of RA in an AIA rat model with an experimental substance; serum metabolite profile by GC/TOFMS and OPLS-DA; format: in vivo, Dark Agouti (DA) rats; details: treated vs untreated; for regulation of endogenous metabolite levels in treated animals (OPLS-DA loadings): FIG. 7B
Source text: Treatment of RA in an AIA Rat Model with an Experimental Substance (Arginine)
AIA was induced in three Dark Agouti (DA) rats and the rats were then given treatment with an experimental substance.
The rat model samples used consist of the following blood samples: • 3 samples from AIA DA rats • 4 samples (one of the rats was sampled twice) from AIA DA rats treated with the experimental substance. Extraction of Metabolites from Serum
as §1
Prior GC/MS analysis the samples were derivatised with 30 μL of methoxyamine hydrochloride (15 mg mL-1) in pyridine by shaking for 10 min at 5° C., then incubating them for 16 h at room temperature. The samples were then trimethylsilylated by adding 30 μL of […] (MSTFA) with 1% TMCS and incubating them for 1 h at room temperature. After silylation, 30 μL of heptane (containing 0.5 μg methyl stearate as internal standard) was added. 0.1 μl of derivatized sample was injected split less by an Agilent 7683 Series Autosampler (Agilent, Atlanta; GA, USA) into an Agilent 6980 GC equipped with a 10 m×0.18 mm ID, fused silica capillary column chemically bonded with 0.18 μm DB5-MS stationary phase (J&W Scientific, Folsom, Calif., USA). The injector temperature was set at 270° C. Helium was used as carrier gas at a constant flow rate of 1 ml/min through the column. For every analysis, the purge time was set to 60 s at a purge flow rate of 20 ml min-1 and an equilibration time of 1 min. […]

| melting point | Structure (SMILES) | levels of the metabolites associated with AD, effect of treatment (AIA Lewis rats) | separation of untreated and treated AIA animals in the OPLS-DA scores scatter plot (patterns of endogenous metabolites) (AIA DA rats; FIG. 7A) | regulation of endogenous metabolite levels in treated animals (OPLS-DA loadings) (AIA DA rats) | regulation of endogenous metabolite levels in treated animals (OPLS-DA loadings) (AIA DA rats; listed as administered substance) |
| --- | --- | --- | --- | --- | --- |
| 198 to 200 °C | COc1ccc(C=NNC(=N)N)c(Cl)c1OC [active compound, N-(2-chloro-3,4-dimethoxybenzylideneamino)guanidine] | significantly affected | – | – | – |
| – | N=C(N)NCCC[C@H](N)C(=O)O [experimental substance, Arginine] | – | well separated | Almost all metabolites are up regulated | up regulation of many of the metabolites |

Source: patent US20120108668A1, “METABOLIC PROFILES” (priority 2009, published 2012)
